The text below walks through data of ChEMBL document CHEMBL1126629 (J Med Chem, 1993).

The target in test [1] is Sodium-dependent serotonin transporter (Homo sapiens, UniProt P31645). The experiment in a line: Ability to inhibit [3H]citalopram binding to serotonin transporter in cynomolgus monkey striatum. Type of test: tissue-based, Cercopithecidae. The settings on record: target entry is the homologue from another species.
A short description of test [2]: Selectivity ratio is IC 50 value of dopamine receptor to that of serotonin 5-HT.

Sequence of Sodium-dependent serotonin transporter (P31645 whole entry): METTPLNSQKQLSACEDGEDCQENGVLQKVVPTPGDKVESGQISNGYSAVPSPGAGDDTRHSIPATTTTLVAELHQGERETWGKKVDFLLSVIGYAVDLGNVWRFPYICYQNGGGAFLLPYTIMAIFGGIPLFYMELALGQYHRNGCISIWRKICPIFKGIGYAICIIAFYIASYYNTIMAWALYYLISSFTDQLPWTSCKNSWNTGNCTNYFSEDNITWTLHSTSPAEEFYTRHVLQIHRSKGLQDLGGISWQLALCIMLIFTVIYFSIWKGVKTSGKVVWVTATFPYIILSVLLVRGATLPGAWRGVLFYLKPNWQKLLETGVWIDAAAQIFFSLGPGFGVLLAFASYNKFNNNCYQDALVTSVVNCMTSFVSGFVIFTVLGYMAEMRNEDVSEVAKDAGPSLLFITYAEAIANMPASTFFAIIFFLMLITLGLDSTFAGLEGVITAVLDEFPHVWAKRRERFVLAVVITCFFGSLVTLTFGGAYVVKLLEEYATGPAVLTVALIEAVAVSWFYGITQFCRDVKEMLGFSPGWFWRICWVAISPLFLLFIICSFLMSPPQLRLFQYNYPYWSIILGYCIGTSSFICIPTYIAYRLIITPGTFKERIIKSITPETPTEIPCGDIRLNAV

For the compound `COC(=O)C1C(c2ccc(I)cc2)CC2CCC1N2C` (configuration not stated), the IC50 in test [1] turned out to be 2.53 nM. Besides, the Selectivity ratio in test [2] turned out to be 2. For `COC(=O)C1C(c2cccc(Br)c2)CC2CCC1N2C` (configuration not stated) the same measures were 20.4 nM and 3. Taken in the same sequence, the figures for `COC(=O)C1C(c2cccc(I)c2)CC2CCC1N2C` (configuration not stated) were 9.88 nM and 0.4.

Compound `COC(=O)C1C2CCC(CC1c1ccc(Cl)cc1)N2` (configuration not stated) gave an IC50 in test [1] of 1.63 nM. Further, the Selectivity ratio in test [2] was found to be 1.

Compound `COC(=O)C1C2CCC(CC1c1ccc(Cl)c(Cl)c1)N2` (configuration not stated) returned an IC50 in test [1] of 1.4 nM.

The compound `COC(=O)C1C(c2ccc(Cl)c(Cl)c2)CC2CCC1N2C` (configuration not stated) displayed a concentration for half-maximal inhibition (IC50) in test [1] of 2.47 nM. Also, the Selectivity ratio in test [2] worked out at 2. In test [1], `COC(=O)[C@H]1[C@@H](c2ccc(F)cc2)C[C@H]2CC[C@H]1N2C` registered an IC50 of 160 nM.

The term IC50 denotes the midpoint of a concentration-inhibition curve.
